Test results reported in patent publication US8536354B2, “Steroidal ligands and their use in gene switch modulation” (Intrexon Corporation, priority 2008, dated 2013).
Read-outs that look alike come from different tables or passages of the source.

Columns and labels:
[1] = target: T1, AmaEcR (GAL4-EcR DEF with VP16-RXR-USP chimera) (Amblyomma americanum, UniProt O44338); assay: Two-hybrid gene switch assay, luciferase reporter, AmaEcR, mouse NIH3T3 cells
T1 sequence (O44338 255-570): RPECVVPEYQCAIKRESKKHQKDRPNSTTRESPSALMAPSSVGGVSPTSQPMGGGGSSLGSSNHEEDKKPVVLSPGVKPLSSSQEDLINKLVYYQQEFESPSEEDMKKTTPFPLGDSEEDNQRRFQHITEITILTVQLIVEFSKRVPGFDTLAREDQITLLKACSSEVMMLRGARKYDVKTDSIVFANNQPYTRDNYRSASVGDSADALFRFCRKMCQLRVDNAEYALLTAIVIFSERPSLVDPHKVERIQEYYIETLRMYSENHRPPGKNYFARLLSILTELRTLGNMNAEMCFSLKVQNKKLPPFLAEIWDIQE
T1 sequence (P28702 1-533 partner): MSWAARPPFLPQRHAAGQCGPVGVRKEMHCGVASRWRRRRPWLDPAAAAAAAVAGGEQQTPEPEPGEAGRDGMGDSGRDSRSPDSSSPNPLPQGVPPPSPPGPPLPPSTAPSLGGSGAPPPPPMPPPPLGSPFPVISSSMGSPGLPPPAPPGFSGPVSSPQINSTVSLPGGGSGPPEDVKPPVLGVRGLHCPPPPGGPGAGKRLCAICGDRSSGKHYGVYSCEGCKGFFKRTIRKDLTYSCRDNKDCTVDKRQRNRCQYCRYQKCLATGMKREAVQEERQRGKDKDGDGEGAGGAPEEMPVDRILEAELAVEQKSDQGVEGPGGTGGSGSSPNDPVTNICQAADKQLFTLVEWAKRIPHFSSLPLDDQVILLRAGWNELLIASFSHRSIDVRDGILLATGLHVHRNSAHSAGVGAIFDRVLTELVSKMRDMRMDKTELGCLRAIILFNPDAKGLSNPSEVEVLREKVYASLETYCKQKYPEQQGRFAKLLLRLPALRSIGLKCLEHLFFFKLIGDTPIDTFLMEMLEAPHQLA

[2] = target: T2, BaEcR (GAL4-EcR DEF with VP16-RXR-USP chimera) (Bemisia tabaci, UniProt A0A6M3RDR8); assay: Two-hybrid gene switch assay, luciferase reporter, BaEcR, mouse NIH3T3 cells
T2 sequence (A0A6M3RDR8 115-530): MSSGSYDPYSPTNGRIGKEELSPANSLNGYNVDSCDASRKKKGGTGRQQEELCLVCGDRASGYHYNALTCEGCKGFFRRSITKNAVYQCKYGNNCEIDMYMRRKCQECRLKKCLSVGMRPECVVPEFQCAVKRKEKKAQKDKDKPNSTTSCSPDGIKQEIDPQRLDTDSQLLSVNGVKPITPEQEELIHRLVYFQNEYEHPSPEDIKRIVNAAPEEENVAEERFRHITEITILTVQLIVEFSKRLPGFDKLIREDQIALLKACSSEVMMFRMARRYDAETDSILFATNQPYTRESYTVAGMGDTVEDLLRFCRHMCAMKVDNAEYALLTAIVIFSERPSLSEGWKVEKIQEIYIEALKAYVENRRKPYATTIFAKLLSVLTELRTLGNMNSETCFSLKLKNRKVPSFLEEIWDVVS
T2 sequence (P28702 1-533 partner): T1 sequence (P28702 1-533 partner)

[3] = target: wild-type Drosophila melanogaster EcR (DmEcR; GAL4-EcR DEF with VP16-RXR-USP chimera) (Drosophila melanogaster, UniProt P34021); assay: Two-hybrid gene switch assay, luciferase reporter, wild-type DmEcR, mouse NIH3T3 cells; assay type: cell-based
[4] = target: T3, MsEcR (GAL4-EcR DEF with VP16-RXR-USP chimera) (Manduca sexta, UniProt P49883); assay: Two-hybrid gene switch assay, luciferase reporter, MsEcR, mouse NIH3T3 cells
T3 sequence (P49883 1-556): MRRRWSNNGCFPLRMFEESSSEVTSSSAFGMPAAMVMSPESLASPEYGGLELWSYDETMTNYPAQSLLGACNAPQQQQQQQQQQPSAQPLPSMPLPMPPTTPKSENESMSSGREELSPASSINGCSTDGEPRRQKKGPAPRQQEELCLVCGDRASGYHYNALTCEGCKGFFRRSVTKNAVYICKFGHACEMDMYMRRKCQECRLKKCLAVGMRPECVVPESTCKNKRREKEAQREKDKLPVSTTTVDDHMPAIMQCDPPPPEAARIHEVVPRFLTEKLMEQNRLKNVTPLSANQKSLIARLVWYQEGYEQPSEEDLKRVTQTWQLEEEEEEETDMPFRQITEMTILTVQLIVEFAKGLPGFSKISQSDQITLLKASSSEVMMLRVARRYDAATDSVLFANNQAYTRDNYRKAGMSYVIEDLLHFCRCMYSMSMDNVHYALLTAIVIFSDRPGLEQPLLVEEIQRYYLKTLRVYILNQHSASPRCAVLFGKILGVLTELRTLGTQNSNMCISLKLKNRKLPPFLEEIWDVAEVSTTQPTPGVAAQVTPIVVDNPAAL
T3 sequence (P28702 1-533 partner): T1 sequence (P28702 1-533 partner)

[5] = target: T4, wild-type CfEcR (GAL4-CfEcR-DEF with VP16-RXR-USP chimera) (Choristoneura fumiferana, UniProt O77255); assay: Two-hybrid gene switch assay, luciferase reporter, wild-type CfEcR, mouse NIH3T3 cells
T4 sequence (O77255 219-541): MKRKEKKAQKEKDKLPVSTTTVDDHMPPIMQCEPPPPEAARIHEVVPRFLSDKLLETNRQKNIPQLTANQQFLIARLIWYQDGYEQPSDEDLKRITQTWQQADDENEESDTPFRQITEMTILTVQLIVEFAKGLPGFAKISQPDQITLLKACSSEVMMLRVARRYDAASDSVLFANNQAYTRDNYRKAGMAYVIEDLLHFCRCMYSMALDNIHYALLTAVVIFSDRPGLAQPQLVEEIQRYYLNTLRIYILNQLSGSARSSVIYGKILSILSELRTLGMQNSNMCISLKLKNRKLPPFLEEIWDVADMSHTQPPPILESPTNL
T4 sequence (P28702 1-533 partner): T1 sequence (P28702 1-533 partner)

[6] = target: T5, TmEcR (GAL4-EcR DEF with VP16-RXR partner) (Tenebrio molitor, UniProt O02035); assay: Two-hybrid gene switch assay, luciferase reporter, TmEcR, mouse NIH3T3 cells
T5 sequence (O02035 194-491): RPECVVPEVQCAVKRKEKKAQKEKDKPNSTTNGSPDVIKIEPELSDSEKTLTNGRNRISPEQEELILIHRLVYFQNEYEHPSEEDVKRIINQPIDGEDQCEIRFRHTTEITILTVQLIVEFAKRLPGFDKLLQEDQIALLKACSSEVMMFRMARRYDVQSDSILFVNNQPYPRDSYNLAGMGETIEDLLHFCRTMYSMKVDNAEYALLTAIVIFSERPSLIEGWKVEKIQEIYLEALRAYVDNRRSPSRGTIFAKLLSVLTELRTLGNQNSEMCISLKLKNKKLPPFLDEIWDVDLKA
T5 sequence (P28704 1-520 partner): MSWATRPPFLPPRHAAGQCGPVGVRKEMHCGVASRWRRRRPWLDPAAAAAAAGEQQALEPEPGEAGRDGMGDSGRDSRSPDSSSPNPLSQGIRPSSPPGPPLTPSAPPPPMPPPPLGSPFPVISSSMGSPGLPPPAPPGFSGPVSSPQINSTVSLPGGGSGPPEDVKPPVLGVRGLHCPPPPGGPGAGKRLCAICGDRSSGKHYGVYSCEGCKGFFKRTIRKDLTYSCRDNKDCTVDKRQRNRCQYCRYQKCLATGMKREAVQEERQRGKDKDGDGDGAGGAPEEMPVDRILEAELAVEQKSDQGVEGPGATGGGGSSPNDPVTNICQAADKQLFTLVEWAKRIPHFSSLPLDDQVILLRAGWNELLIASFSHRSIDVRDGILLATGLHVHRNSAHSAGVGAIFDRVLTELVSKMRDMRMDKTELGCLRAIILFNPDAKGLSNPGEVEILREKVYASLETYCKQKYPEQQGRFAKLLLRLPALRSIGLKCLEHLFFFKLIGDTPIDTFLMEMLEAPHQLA

[7] = target: BmEcR (GAL4-EcR DEF with VP16-RXR-USP chimera) (Bombyx mori, UniProt P49881); assay: Two-hybrid gene switch assay, luciferase reporter, BmEcR, mouse NIH3T3 cells; assay type: cell-based
[8] = test system: NcEcR (GAL4-EcR DEF with VP16-RXR partner); assay: Two-hybrid gene switch assay, luciferase reporter, NcEcR, mouse NIH3T3 cells
[9] = target: wild-type Aedes aegypti EcR (AaEcR; GAL4-EcR DEF with VP16-RXR-USP chimera) (Aedes aegypti, UniProt P49880); assay: Two-hybrid gene switch assay, luciferase reporter, wild-type AaEcR, mouse NIH3T3 cells; assay type: cell-based
[10] = EC50, FIG. 14A/14B, GAL4-EcR(DEF) with VP16-RXR-USP chimera
[11] = EC50, FIG. 13A/13B, GAL4-EcR(DEF) with VP16-RXR-USP chimera
[12] = EC50, FIG. 14A/14B, GAL4-EcR(DEF)
[13] = FIG. 14A/14B, GAL4-EcR(DEF) with VP16-RXR-USP chimera, read-out: EC50
[14] = FIG. 13A/13B, BmEcR, GAL4-EcR(DEF) with VP16-RXR-USP chimera, read-out: EC50
[15] = EC50, FIG. 16, GAL4-EcR (DEF) / VP16-RXR-USP chimera
[16] = FIG. 16, GAL4-EcR (DEF) / VP16-RXR-USP chimera, read-out: EC50

Chain of wild-type Aedes aegypti EcR (AaEcR; GAL4-EcR DEF with VP16-RXR-USP chimera) (P49880 with tags, fused parts or gaps limits assumed, change not shown): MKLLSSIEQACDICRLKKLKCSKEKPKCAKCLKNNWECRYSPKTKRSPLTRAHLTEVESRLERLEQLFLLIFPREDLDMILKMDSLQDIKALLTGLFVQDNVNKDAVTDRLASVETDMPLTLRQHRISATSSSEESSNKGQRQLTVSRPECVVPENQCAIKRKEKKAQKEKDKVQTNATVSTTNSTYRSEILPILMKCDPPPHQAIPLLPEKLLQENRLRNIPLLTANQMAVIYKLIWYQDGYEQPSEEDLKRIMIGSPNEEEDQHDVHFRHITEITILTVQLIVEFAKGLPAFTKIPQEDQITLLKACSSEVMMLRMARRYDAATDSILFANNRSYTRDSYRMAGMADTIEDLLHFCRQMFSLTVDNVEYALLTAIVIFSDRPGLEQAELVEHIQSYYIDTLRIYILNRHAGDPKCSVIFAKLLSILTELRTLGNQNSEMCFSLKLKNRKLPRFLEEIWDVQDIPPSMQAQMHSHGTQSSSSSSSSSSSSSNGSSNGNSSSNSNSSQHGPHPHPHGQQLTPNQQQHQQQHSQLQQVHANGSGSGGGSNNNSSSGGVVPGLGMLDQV
Chain of wild-type Drosophila melanogaster EcR (DmEcR; GAL4-EcR DEF with VP16-RXR-USP chimera) (P34021 with tags, fused parts or gaps limits assumed): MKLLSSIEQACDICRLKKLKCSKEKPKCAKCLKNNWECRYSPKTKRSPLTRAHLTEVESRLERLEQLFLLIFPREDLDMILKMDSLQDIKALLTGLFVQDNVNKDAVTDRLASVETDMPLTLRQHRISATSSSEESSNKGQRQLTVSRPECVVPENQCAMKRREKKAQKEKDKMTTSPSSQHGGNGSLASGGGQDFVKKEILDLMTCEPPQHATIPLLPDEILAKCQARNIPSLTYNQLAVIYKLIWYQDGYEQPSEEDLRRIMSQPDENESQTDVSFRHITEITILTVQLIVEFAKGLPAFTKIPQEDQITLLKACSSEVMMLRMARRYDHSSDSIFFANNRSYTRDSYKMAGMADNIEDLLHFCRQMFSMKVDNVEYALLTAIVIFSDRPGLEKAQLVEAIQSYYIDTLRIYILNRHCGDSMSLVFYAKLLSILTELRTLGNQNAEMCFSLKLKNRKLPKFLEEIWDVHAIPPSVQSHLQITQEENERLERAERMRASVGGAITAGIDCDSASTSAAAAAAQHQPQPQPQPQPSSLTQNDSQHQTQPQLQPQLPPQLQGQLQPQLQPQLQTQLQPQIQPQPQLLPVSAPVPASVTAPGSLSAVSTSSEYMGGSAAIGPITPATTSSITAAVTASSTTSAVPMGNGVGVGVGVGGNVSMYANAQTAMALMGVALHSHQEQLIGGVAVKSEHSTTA
Chain of BmEcR (GAL4-EcR DEF with VP16-RXR-USP chimera) (P49881 other isoform, or with tags, fused parts or gaps, change not shown): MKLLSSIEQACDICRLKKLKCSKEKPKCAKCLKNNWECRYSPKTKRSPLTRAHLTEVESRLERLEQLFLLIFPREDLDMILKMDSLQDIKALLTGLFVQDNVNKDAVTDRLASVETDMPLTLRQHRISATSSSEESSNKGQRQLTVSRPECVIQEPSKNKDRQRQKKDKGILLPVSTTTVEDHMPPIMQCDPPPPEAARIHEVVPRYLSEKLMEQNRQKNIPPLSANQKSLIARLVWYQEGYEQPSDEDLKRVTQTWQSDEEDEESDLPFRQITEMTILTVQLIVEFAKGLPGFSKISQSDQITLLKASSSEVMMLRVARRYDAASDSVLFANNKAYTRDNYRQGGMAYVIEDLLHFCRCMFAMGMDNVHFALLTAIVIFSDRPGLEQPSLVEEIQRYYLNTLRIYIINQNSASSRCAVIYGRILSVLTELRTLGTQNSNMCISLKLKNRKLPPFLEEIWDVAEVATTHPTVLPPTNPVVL

Structure (SMILES) | EC50 [1, 10] [µM] | EC50 [2, 10] [µM] | EC50 [3, 10] [µM] | EC50 [4, 11] [µM] | EC50 [5] [µM] | EC50 [6, 12] [µM] | EC50 ([8]; FIG. 14A/14B, GAL4-EcR(DEF)) [µM] | EC50 [9, 13] [µM] | other results
CC(C)(O)CCCC(C)(O)C1CCC2(O)C3=CC(=O)C4CC(O)C(O)CC4(C)C3CCC12C (stereo not drawn) | ~10 | ~10 | ~20 | ~15 | > 33 | ~20 | 3.04 |  | EC50 [7]: > 33 µM
C=C(C)CC[C@@H](O)[C@](C)(O)[C@H]1CC[C@@]2(O)C3=CC(=O)[C@@H]4C[C@@H](O)[C@@H](O)C[C@]4(C)[C@H]3CC[C@]12C [listing 1 of 2 here] |  | 0.382 | 0.912 |  |  | 1.4 | 0.006 |  | EC50 [9, 10]: 0.024 µM
C=C(C)CC[C@@H](O)[C@](C)(O)[C@H]1CC[C@@]2(O)C3=CC(=O)[C@@H]4C[C@@H](O)[C@@H](O)C[C@]4(C)[C@H]3CC[C@]12C [listing 2 of 2 here] |  |  |  | 0.608 | ~12 |  |  |  | EC50 ([7]; read-out: EC50): 6.28 µM
CC(C)(O)CC[C@@H](O)[C@](C)(O)[C@H]1CC[C@@]2(O)C3=CC(=O)[C@@H]4C[C@H](O)[C@@H](O)C[C@]4(C)[C@H]3CC[C@]12C | ~10 | ~20 |  | ~10 |  | > 33 | 4.84 | ~8 | EC50 [3, 13]: ~20 µM; EC50 [7, 14]: > 33 µM
CC(C)(O)CC[C@H]1OC(C)(C)O[C@]1(C)[C@H]1CC[C@@]2(O)C3=CC(=O)[C@@H]4C[C@@H](O)[C@@H](O)C[C@]4(C)[C@H]3CC[C@]12C [20-hydroxyecdysone-20,22-acetonide] | ~20 | > 33 | > 33 | ~12 |  | > 33 | ~10 | ~12 | EC50 [1, 15]: ~1 µM; EC50 [2, 15]: 8.57 µM; EC50 [3, 15]: ~12 µM; EC50 ([4]; EC50, FIG. 15, GAL4-EcR (DEF) / VP16-RXR-USP chimera): ~12 µM; EC50 [9, 16]: 2.38 µM; EC50 ([6]; EC50, FIG. 16, GAL4-EcR (DEF)): ~3 µM
CC(C)(O)CC[C@@H](O)[C@](C)(O)[C@H]1CC[C@@]2(O)C3=CC(=O)[C@H]4C[C@@H](O)[C@@H](O)C[C@]4(C)[C@H]3CC[C@]12C [(5a-H)-20-hydroxyecdysone] | > 33 | > 33 |  | > 33 |  | > 33 | ~15 | ~20 | EC50 [3, 13]: > 33 µM; EC50 [7, 14]: > 33 µM
CC(C)(O)CCC(O)C(C)(O)C1CCC2(O)C3=CC(=O)C4CC(O)CCC4(C)C3CCC12C (stereo not drawn) [Compound 2-deoxy-20-hydroxyecdysone] | ~5 | ~15 | > 33 | ~10 | > 33 | ~20 |  | ~5 | EC50 ([7]; read-out: EC50): > 33 µM
CC(C)(O)CC[C@@H](O)[C@](C)(O)[C@H]1CC[C@@]2(O)C3=CC(=O)[C@@H]4C[C@@H](O)[C@@H](O)C[C@]4(C)[C@H]3CC[C@]12C [Compound 20-hydroxyecdysone] |  | ~5 |  |  |  | ~15 | ~0.8 |  | EC50 [1, 15]: ~0.8 µM; EC50 [2, 15]: 5.35 µM; EC50 [3, 16]: ~15 µM; EC50 [9, 16]: 4.38 µM; EC50 ([8]; FIG. 16, GAL4-EcR (DEF)): 0.6 µM
CC(C)CC[C@@H](O)[C@](C)(O)[C@H]1CC[C@@]2(O)C3=CC(=O)[C@]4(O)C[C@@H](O)[C@@H](O)C[C@]4(C)[C@H]3[C@H](O)C[C@]12C [Mur A, muristerone A, reference compound] | 0.128 | 0.829 | 0.058 | 0.66 |  | ~5 |  |  | EC50 ([3]; EC50, FIG. 4C): 0.112 µM; EC50 [9, 10]: 0.023 µM; EC50 ([7]; EC50, FIG. 13A/13B, BmEcR, GAL4-EcR(DEF) with VP16-RXR-USP chimera): 2.98 µM
